The results in this text go back to patent publication US20150073005A1, “COMPOSITION FOR HAIR GROWTH” (ASAHI GLASS COMPANY, LIMITED, priority 2012, published 2015).

This data set deals with C3H/HeNSIc mouse. The conditions noted are these: in vivo.

Description: Hairs on the back of each C3H/HeNSIc mouse (male, 8 weeks old) were carefully dehaired in an area of 2 cm×3 cm to form a medicine application surface. The next day (the day before initiation of the test), mice which were confirmed to have no damage on the application surface of the back, to have a pink color over the entire application surface and to be in the telogen stage of hair growth, were bred in a stainless steel cage (185 W×260 D×175 H (mm)) in three groups each group consisting of 10 mice.
Every day, the application surface was inspected before the application, and the day on which hair growth was observed, was taken as the hair growth day.

Turning to `CC(C)OC(=O)CCC/C=C\C[C@@H]1[C@@H](/C=C/C(F)(F)COc2ccccc2)[C@H](O)C[C@@H]1O` [0.0015% Tafluprost, Tafluprost], the “Blackening of the skin at the application surface as visually observed” value is recorded as “^aHair growth without blackening of the skin as visually observed”.
